For experiment [1], the target named is T1, human orexin-1 (hOX1) receptors (Homo sapiens, UniProt O43613).
T1 construct: expressed in transfected cells
T1 sequence (O43613 1-425): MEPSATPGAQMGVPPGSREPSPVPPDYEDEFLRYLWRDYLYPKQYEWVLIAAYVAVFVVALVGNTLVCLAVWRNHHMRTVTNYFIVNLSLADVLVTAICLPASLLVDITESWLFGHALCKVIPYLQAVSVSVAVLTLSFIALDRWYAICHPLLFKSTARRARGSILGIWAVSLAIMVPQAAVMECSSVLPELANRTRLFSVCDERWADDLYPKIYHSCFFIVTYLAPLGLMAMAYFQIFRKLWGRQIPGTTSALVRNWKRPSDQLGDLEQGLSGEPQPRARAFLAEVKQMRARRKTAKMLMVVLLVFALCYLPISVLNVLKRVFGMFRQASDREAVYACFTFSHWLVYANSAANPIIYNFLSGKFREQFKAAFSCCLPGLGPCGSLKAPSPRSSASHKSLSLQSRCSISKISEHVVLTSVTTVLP
Nature of the experiment: Intracellular Ca2+ mobilization assay (FLIPR), CHO(dHFr-) cells expressing hOX1. It is filed as cell-based. To be noted: antagonism of orexin-A at EC80; Kb=IC50/(1+[A]/EC50); CHO(dHFr-)-OX1R cells. As to the method:
(§1) Intracellular Ca^2+ Mobilization Assay
(§2) The Chinese Hamster Ovary (dHFr-) mutant cell line stably expressing human orexin-1 (hOX1) or human orexin-2 (hOX2) receptors were maintained in Dulbecco's Modified Eagle Medium (1X) with GlutaMax™ 1, 4500 mg/L D-Glucose and Sodium Pyruvate (Catalog No. 31966-021, Invitrogen, Carlsbad, Calif.), 5% dialyzed fetal calf serum (Catalog No. 26400-044), 100 μg/ml penicillin and 100 μg/ml streptomycin. The cells were seeded at 5×10^4 cells/well in the poly-D-lysine treated, 96-well, black/clear-bottomed plates (Catalog No. BD356640, BD Biosciences, Palo Alto, Calif.). 24 h later, the cells were loaded for 1 h at 37° C. with 4 μM Flou-4 acetoxymethyl ester (Catalog No. F-14202, Molecular Probes, Eugene, Oreg.) in FLIPR buffer (1×HBSS, 20 mM HEPES, 2.5 mM Probenecid). Hanks' Balanced Salt Solution (HBSS) (10×) (catalog No. 14065-049) and HEPES (1M) (catalog No. 15630-056) were purchased from Invitrogen, Carlsbad, Calif. Probenecid (250 mM) (catalog No. P8761) was from Sigma, Buchs, Switzerland. The cells were washed five times with FLIPR buffer to remove excess dye and intracellular calcium mobilization, [Ca^2+]i were measured using a Fluorometric Imaging Plate Reader (FLIPR-96, Molecular Devices, Menlo Park, Calif.) as described previously (Malherbe et al., Mol. Pharmacol., 64, 823-832, 2003). Orexin A (catalog No. 1455, Toris Cookson Ltd, Bristol, UK) was used as agonist. Orexin A ([…] stock solution in DMSO) was diluted in FLIPR buffer +0.1% BSA. The EC50 and EC80 values of orexin-A were measured daily from standard agonist concentration-response curves in CHO(dHFr-)-OX1R and -OX2R cell lines. All compounds were dissolved in 100% DMSO. Inhibition curves were determined by addition of 11 concentrations (0.0001-10 μM) of inhibitory compounds and using EC80 value of orexin-A as agonist (a concentration which gave 80% of max agonist response, determined daily). The antagonists were applied 25 min (incubation at 37° C.) before the application of the agonist. Responses were measured as peak increase in fluorescence minus basal, normalized to the maximal stimulatory effect induced by EC80 value of orexin-A or orexin-B. Inhibition curves were fitted according to the Hill equation: y=100/(1+(x/IC50)^nH), where nH=slope factor using Excel-fit 4 software (Microsoft). Kb values were calculated according to the following equation Kb=IC50/(1+[A]/EC50) where A is the concentration of agonist added which is very close to agonist EC80 value, and IC50 and EC50 values were derived from the antagonist inhibition and orexin-A or B agonist curves, respectively.
For orientation: Calcium assays in cells follow changes in intracellular calcium, usually with a dye or a luminescent sensor.

In experiment [2] the target is T2, human orexin-2 (hOX2) receptors (Homo sapiens, UniProt O43614).
T2 construct: expressed in transfected cells
T2 sequence (O43614 1-444): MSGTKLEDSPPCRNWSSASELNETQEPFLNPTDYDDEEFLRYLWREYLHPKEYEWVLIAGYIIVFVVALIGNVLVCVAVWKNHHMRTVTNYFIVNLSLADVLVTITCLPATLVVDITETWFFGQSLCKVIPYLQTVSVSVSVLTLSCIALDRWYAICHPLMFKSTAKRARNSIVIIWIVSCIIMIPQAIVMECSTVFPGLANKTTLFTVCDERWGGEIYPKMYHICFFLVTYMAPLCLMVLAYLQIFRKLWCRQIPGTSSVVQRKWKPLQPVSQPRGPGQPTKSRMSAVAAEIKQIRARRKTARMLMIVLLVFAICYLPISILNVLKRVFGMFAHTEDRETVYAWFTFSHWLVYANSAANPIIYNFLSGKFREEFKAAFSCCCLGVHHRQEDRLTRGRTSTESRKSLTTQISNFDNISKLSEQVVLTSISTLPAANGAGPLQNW
Nature of the experiment: Intracellular Ca2+ mobilization assay (FLIPR), CHO(dHFr-) cells expressing hOX2. The conditions noted are these: antagonism of orexin-A at EC80; Kb=IC50/(1+[A]/EC50); CHO(dHFr-)-OX2R cells. It is filed as cell-based. As to the method:
as §1, §2

Another experiment relates to REM sleep. To be noted: rat, icv administration (Piper et al., 2000); cited from earlier work.

No end group written: not given here.

For orientation: Kb means the equilibrium dissociation constant of an antagonist, usually derived from a functional assay. Low values mean higher antagonist affinity, high ones lower antagonist affinity. On to `CNC(=O)C(C(=O)N(CCc1ccc(C(F)(F)F)cc1)c1ccc(OC)c(OC)c1)c1ccccc1` (stereo not drawn) [Example 1, N-(3,4-Dimethoxy-phenyl)-N′-methyl-2-phenyl-N-[2-(4-trifluoromethyl-phenyl)-ethyl]-malonamide], for which the Kb in experiment [1] is 0.16 µM; in experiment [2], 0.0255 µM. For `COc1ccc(N(CCc2ccc(C(F)(F)F)cc2)C(=O)C(C(N)=O)c2ccccc2)cc1OC` (stereo not drawn) [Example 2, N-(3,4-Dimethoxy-phenyl)-2-phenyl-N-[2-(4-trifluoromethyl-phenyl)-ethyl]-malonamide], the Kb in experiment [1] was 0.127 µM; in experiment [2], 0.0172 µM. Consider `CCCCNC(=O)C(C(=O)N(CCc1ccc(C(F)(F)F)cc1)c1ccc(OC)c(OC)c1)c1ccccc1` (stereo not drawn) [Example 3, N-Butyl-N′-(3,4-dimethoxy-phenyl)-2-phenyl-N′-[2-(4-trifluoromethyl-phenyl)-ethyl]-malonamide], for which the Kb in experiment [2] was 0.0419 µM. In the case of `COCCNC(=O)C(C(=O)N(CCc1ccc(C(F)(F)F)cc1)c1ccc(OC)c(OC)c1)c1ccccc1` (stereo not drawn) [Example 5, N-(3,4-Dimethoxy-phenyl)-N′-[2-methoxy-ethyl)-2-phenyl-N-[2-(4-trifluoromethyl-phenyl)-ethyl]-malonamide], the Kb came to 0.229 µM in experiment [1] and 0.0217 µM in experiment [2]. Taken in the same sequence, the figures for `COc1ccc(N(CCc2ccc(C(F)(F)F)cc2)C(=O)C(C(=O)NCc2ccc(C)cc2)c2ccccc2)cc1OC` (stereo not drawn) [Example 13, N-(3,4-Dimethoxy-phenyl)-N′-(4-methyl-benzyl)-2-phenyl-N-[2-(4-trifluoromethyl-phenyl)-ethyl]-malonamide] were 0.218 µM and 0.0968 µM. `COc1ccc(N(CCc2ccc(C(F)(F)F)cc2)C(=O)C(C(=O)N(C)CCc2ccccc2)c2ccccc2)cc1OC` (stereo not drawn) [Example 14, N-(3,4-Dimethoxy-phenyl)-N′-methyl-N′-phenethyl-2-phenyl-N-[2-(4-trifluoromethyl-phenyl)-ethyl]-malonamide]: the Kb in experiment [1] was 0.234 µM; in experiment [2], 0.0141 µM. For the compound `COc1ccc(N(CCc2ccc(C(F)(F)F)cc2)C(=O)C(C(=O)N(C)Cc2ccccc2)c2ccccc2)cc1OC` (stereo not drawn) [Example 15, N-Benzyl-N′-(3,4dimethoxy-phenyl)-N-methyl-2-phenyl-N′-[2-(4-trifluoromethyl-phenyl)-ethyl]-malonamide], the Kb in experiment [1] is 0.166 µM; in experiment [2], 0.0428 µM. For `COc1ccc(N(CCc2ccc(C(F)(F)F)cc2)C(=O)C(C(=O)Nc2ccc(F)cc2)c2ccccc2)cc1OC` (stereo not drawn) [Example 16, N-(3,4-Dimethoxy-phenyl)-N′-(4-fluoro-phenyl)-2-phenyl-N-[2-(4-trifluoromethyl-phenyl)-ethyl]-malonamide], the Kb came to 0.252 µM in experiment [1] and 0.0817 µM in experiment [2]. On the same counts, the results for `CCNC(=O)C(C(=O)N(CCc1ccc(C(F)(F)F)cc1)c1ccc(OC)c(OC)c1)c1ccccc1` (stereo not drawn) [Example 17, N-(3,4-Dimethoxy-phenyl)-N′-ethyl-2-phenyl-N-[2-(4-trifluoromethyl-phenyl)-ethyl]-malonamide] are 0.191 µM and 0.0299 µM. On the same counts, the results for `COc1ccc(N(CCc2ccc(C(F)(F)F)cc2)C(=O)C(C(=O)NC2CC2)c2ccccc2)cc1OC` (stereo not drawn) [Example 18, N-Cyclopropyl-N′-(3,4-dimethoxy-phenyl)-2-phenyl-N′-[2-(4-trifluoromethyl-phenyl)-ethyl]-malonamide] are 0.199 µM and 0.0197 µM.

Consider `CCCNC(=O)C(C(=O)N(CCc1ccc(C(F)(F)F)cc1)c1ccc(OC)c(OC)c1)c1ccccc1` (stereo not drawn) [Example 19, N-(3,4-Dimethoxy-phenyl)-2-phenyl-N′-propyl-N-[2-(4-trifluoromethyl-phenyl)-ethyl]-malonamide], for which the antagonist equilibrium constant (Kb) came out at 0.245 µM in experiment [1] and 0.0523 µM in experiment [2]. On the same counts, the results for `COc1ccc(N(CCc2ccc(C(F)(F)F)cc2)C(=O)C(C(=O)NCC2CC2)c2ccccc2)cc1OC` (stereo not drawn) [Example 20, N-Cyclopropylmethyl-N′-(3,4-dimethoxy-phenyl)-2-phenyl-N′-[2-(4-trifluoromethyl-phenyl)-ethyl]-malonamide] are 0.292 µM and 0.0468 µM. Take `COc1ccc(N(CCc2ccc(C(F)(F)F)cc2)C(=O)C(C(=O)NCC(F)F)c2ccccc2)cc1OC` (stereo not drawn) [Example 21, N-(2,2-Difluoro-ethyl)-N′-(3,4-diemthoxy-phenyl)-2-phenyl-N′-[2-(4-trifluoromethyl-phenyl)-ethyl]-malonamide]: the Kb was 0.173 µM in experiment [1] and 0.0278 µM in experiment [2]. Turning to `COc1ccc(N(CCc2ccc(C(F)(F)F)cc2)C(=O)C(C(=O)Nc2cccnc2)c2ccccc2)cc1OC` (stereo not drawn) [Example 22, N-(3,4-Dimethoxy-phenyl)-2-phenyl-N′-pyridin-3-yl-N-[2-(4-trifluoromethyl-phenyl)-ethyl]-malonamide], the Kb in experiment [1] is 0.439 µM; in experiment [2], 0.0838 µM. Taken in the same sequence, the figures for `COc1ccc(N(CCc2ccc(C(F)(F)F)cc2)C(=O)C(C(=O)NC2CCOCC2)c2ccccc2)cc1OC` (stereo not drawn) [Example 23, N-(3,4-Dimethoxy-phenyl)-2-phenyl-N′-(tetrahydro-pyran-4-yl)-N-[2-(4-trifluoromethyl-phenyl)-ethyl]-malonamide] were 0.238 µM and 0.023 µM. Turning to `COc1ccc(N(CCc2ccc(C(F)(F)F)cc2)C(=O)C(C(=O)NCc2cccnc2)c2ccccc2)cc1OC` (stereo not drawn) [Example 24, N-(3,4-Dimethoxy-phenyl)-2-phenyl-N′-pyridin-3-ylmethyl-N-[2-(4-trifluoromethyl-phenyl)-ethyl]-malonamide], the Kb in experiment [1] and in experiment [2] was 0.245 µM throughout. Take `COc1cc(N(CCc2ccc(C(F)(F)F)cc2)C(=O)C(C(=O)N(C)C)c2ccccc2)ccc1Cl` (stereo not drawn) [Example 56, N-(4-Chloro-3-methoxy-phenyl)-N′,N′-dimethyl-2-phenyl-N-[2-(4-trifluoromethyl-phenyl)-ethyl]-malonamide]: the Kb was determined as 0.295 µM in experiment [1] and 0.055 µM in experiment [2]. On the same counts, the results for `COc1ccc(N(CCc2ccc(C(F)(F)F)cc2)C(=O)C(C(=O)N(C)C)c2ccccc2)cc1Cl` (stereo not drawn) [Example 58, N-(3-Chloro-4-methoxy-phenyl)-N′,N′-dimethyl-2-phenyl-N-[2-(4-trifluoromethyl-phenyl)-ethyl]-malonamide] are 0.723 µM and 0.0572 µM. For the compound “OX-A: orexin-A/hypocretin1, hypothalamic neuropeptide of 33 amino acids, agonist of OX1R and OX2R (QPLPDCCRQKTCSCRLYELLHGAGNHAAGILTL; ends and bridges not checked; cysteine pairing not given here; UniProt O43612 34-66, looked up)”, in the experiment on REM sleep, the “reduces total REM sleep” value is 84%.

Source of the values: patent publication US7501541B2, “Malonamides as orexin antagonists” (Hoffmann-La Roche Inc., priority 2007, dated 2009).
